Article PMC8619046, “ABCB1 and ABCG2 Control Brain Accumulation and Intestinal Disposition of the Novel ROS1/TRK/ALK Inhibitor Repotrectinib, While OATP1A/1B, ABCG2, and CYP3A Limit Its Oral Availability” (Pharmaceutics, 2021)
“And” between values parts separate entries of the source, which are not always exact repeats. Identical values can stand only once. Like-named read-outs stand apart in the source and are kept apart here.

Experiment: 8-h pilot oral plasma pharmacokinetics and tissue distribution, female wild-type, Abcb1a/1b;Abcg2−/− and Oatp1a/1b−/− mice
Format: in vivo
Conditions: Table S1, 10 mg/kg oral, 8 h; for Tmax: median (range); for Fold change (SIC (% of dose)-to-plasma ratio) / Fold change SIC (% of dose) / Fold increase Cbrain / Fold increase Cliver / Fold increase ratio (liver-to-plasma) / Fold change AUC0-8h / Fold increase ratio (brain-to-plasma): vs wild-type; for Kp at 8 h / concentration at 8 h / Cmax / AUC(0-t): female, po; for AUC(0-t): read-out: AUC0-8h
Source text: Mice with similar average ages (and body weights) were randomly allocated in experimental groups as far as possible. Mice were maintained in a temperature-controlled and specific pathogen-free environment with a 12-h light and 12-h dark cycle and they received a standard diet (Transbreed, SDS Diets, Technilab-BMI, Someren, The Netherlands) and acidified water ad libitum. […] Given the objective main readout (repotrectinib plasma and tissue concentrations as measured by LC-MS/MS), no blinding method was applied.
Repotrectinib was dissolved in dimethyl sulfoxide (DMSO) at a concentration of 50 mg/mL. This stock solution was first diluted 3-fold with ethanol/polysorbate 80 (1/1; v/v), followed by further dilution with a 10 mM hydrochloric acid solution, yielding a dosing solution of 1 mg/mL, freshly prepared on the day of experiment. Final concentrations of the solvents in the administration solution were: 2%, 2%, 2%, and 94% (all v/v) for DMSO, ethanol, polysorbate 80, and 10 mM hydrochloric acid solution, respectively.
To minimize variation in absorption upon oral administration, mice were fasted for 2–3 h before repotrectinib (10 mg/kg body weight) was administered by gavage into the stomach at 10 µL/g body weight, with a blunt-ended needle. Tail vein serial blood samples were collected at 0.125, 0.25, 0.5, 1, 2 and 4 h using heparinized capillary tubes (Sarstedt, Nümbrecht, Germany) for the 8-h experiments. For the 4- and 2-h experiments, blood samplings were performed from the tail vein with the same schedule, but terminated at 2 and 1 h, respectively. Eight, four, or two hours after oral administration, mice were deeply anesthetized with 2–3% isoflurane, followed by cardiac puncture to collect blood in Eppendorf tubes containing heparin as an anticoagulant. Brain, liver, spleen, kidney, lung, small intestine, and testis were rapidly collected after sacrificing the mice by cervical dislocation. The small intestinal contents (SIC) were separated from small intestinal tissue (SI), which was flushed and rinsed with cold saline to remove any residual feces. Brain, liver, spleen, kidney, lung, SI, SIC, and testis were homogenized with 1, 3, 1, 2, 1, 3, 2, and 1 mL of 2% BSA (w/v), respectively. Plasma fraction was isolated from blood by centrifugation at 9000× g for 6 min at 4 °C. All samples were stored at −30 °C until analysis.
A sensitive and specific liquid chromatography-tandem mass spectrometry method using protein precipitation pre-treatment was adopted to quantify the concentration of repotrectinib in DMEM medium, plasma samples and tissue homogenates.
A non-compartmental model using the PKSolver add-in program for Microsoft Excel was adopted to calculate the pharmacokinetic parameters of repotrectinib. Oral availability was assessed by the plasma area under the curve (AUC), calculated using repotrectinib plasma concentration-time curves with the linear trapezoidal rule without extrapolating the infinity. Statistical testing was performed in Graphpad Prism7 (Graphpad Software, La Jolla, CA, USA). All data are presented as geometric means ± SD. Heteroscedastic data were log-transformed before applying statistical analysis. When differences between two groups were compared, the two-sided unpaired Student’s t test was used. One-way analysis of variance (ANOVA) was applied when multiple groups were compared, and the Bonferroni post hoc correction was used to accommodate multiple testing. Differences were considered statistically significant when P < 0.05.

[1] = female Abcb1a/1b;Abcg2−/− mice, 10 mg/kg
[2] = FVB, mouse, plasma, 10 mg/kg, female Abcb1a/1b;Abcg2−/− mice
[3] = FVB, mouse, plasma, 10 mg/kg, female wild-type mice

SMILES: C[C@H]1CNC(=O)c2cnn3ccc(nc23)N[C@H](C)c2cc(F)ccc2O1 [repotrectinib]
- Tmax (FVB, mouse, plasma, female wild-type mice, read-out: Tmax): 30 min
- SIC (% of dose) (female Abcb1a/1b;Abcg2−/− mice): 0.22 ± 0.20 % of dose
- SIC (% of dose)-to-plasma ratio (female Abcb1a/1b;Abcg2−/− mice): 0.48 ± 0.43 ·10-3
- Fold change (SIC (% of dose)-to-plasma ratio) (female Abcb1a/1b;Abcg2−/− mice): 0.054
- Fold change SIC (% of dose) (female Abcb1a/1b;Abcg2−/− mice): 0.11
- Fold increase Cbrain (female Abcb1a/1b;Abcg2−/− mice): 19.5
- Fold increase Cliver (female Abcb1a/1b;Abcg2−/− mice): 1.50
- Fold increase ratio (liver-to-plasma) (female Abcb1a/1b;Abcg2−/− mice): 0.79
- Fold change AUC0-8h [1]: 1.42 and 1.4
- Fold increase ratio (brain-to-plasma) [1]: 9.46 and 9.5
- SIC (% of dose) (female Oatp1a/1b−/− mice): 5.59 ± 3.32 % of dose
- SIC (% of dose)-to-plasma ratio (female Oatp1a/1b−/− mice): 14.5 ± 8.9 ·10-3
- Fold change (SIC (% of dose)-to-plasma ratio) (female Oatp1a/1b−/− mice): 1.63
- Fold change SIC (% of dose) (female Oatp1a/1b−/− mice): 2.69
- Fold increase Cbrain (female Oatp1a/1b−/− mice): 3.64
- Fold increase Cliver (female Oatp1a/1b−/− mice): 1.43
- Fold increase ratio (brain-to-plasma) (female Oatp1a/1b−/− mice): 1.85
- Fold increase ratio (liver-to-plasma) (female Oatp1a/1b−/− mice): 0.86
- Fold change AUC0-8h (female Oatp1a/1b−/− mice, 10 mg/kg): 1.51 and 1.5
- SIC (% of dose) (female wild-type mice): 2.08 ± 1.35 % of dose
- SIC (% of dose)-to-plasma ratio (female wild-type mice): 8.87 ± 1.83 ·10-3
- Fold change (SIC (% of dose)-to-plasma ratio) (female wild-type mice): 1.00
- Fold change AUC0-8h (female wild-type mice): 1.00
- Fold change SIC (% of dose) (female wild-type mice): 1.00
- Fold increase Cbrain (female wild-type mice): 1.00
- Fold increase Cliver (female wild-type mice): 1.00
- Fold increase ratio (brain-to-plasma) (female wild-type mice): 1.00
- Fold increase ratio (liver-to-plasma) (female wild-type mice): 1.00
- Tmax (female Abcb1a/1b;Abcg2−/− mice): 0.5 (0 .5-1) h
- Tmax (female Oatp1a/1b−/− mice): 0.5 (0.25-1) h
- Kp at 8 h (FVB, mouse, brain, 10 mg/kg, female Abcb1a/1b;Abcg2−/− mice, read-out: Brain-to-plasma ratio): 2.46 ± 0.31
- concentration at 8 h (FVB, mouse, brain, 10 mg/kg, female Abcb1a/1b;Abcg2−/− mice, read-out: Cbrain): 1000 ± 320 ng/g
- Kp at 8 h (FVB, mouse, brain, 10 mg/kg, female Oatp1a/1b−/− mice, read-out: Brain-to-plasma ratio): 0.48 ± 0.12
- concentration at 8 h (FVB, mouse, brain, 10 mg/kg, female Oatp1a/1b−/− mice, read-out: Cbrain): 186 ± 51.4 ng/g
- Kp at 8 h (FVB, mouse, brain, 10 mg/kg, female wild-type mice, read-out: Brain-to-plasma ratio): 0.26 ± 0.12
- concentration at 8 h (FVB, mouse, brain, 10 mg/kg, female wild-type mice, read-out: Cbrain): 51.2 ± 17.8 ng/g
- concentration at 8 h (FVB, mouse, liver, 10 mg/kg, female Abcb1a/1b;Abcg2−/− mice, read-out: Cliver): 1780 ± 770 ng/mL
- Kp at 8 h (FVB, mouse, liver, 10 mg/kg, female Abcb1a/1b;Abcg2−/− mice, read-out: Liver-to-plasma ratio): 4.21 ± 0.35
- concentration at 8 h (FVB, mouse, liver, 10 mg/kg, female Oatp1a/1b−/− mice, read-out: Cliver): 1750 ± 450 ng/mL
- Kp at 8 h (FVB, mouse, liver, 10 mg/kg, female Oatp1a/1b−/− mice, read-out: Liver-to-plasma ratio): 4.59 ± 1.28
- concentration at 8 h (FVB, mouse, liver, 10 mg/kg, female wild-type mice, read-out: Cliver): 1220 ± 650 ng/mL
- Kp at 8 h (FVB, mouse, liver, 10 mg/kg, female wild-type mice, read-out: Liver-to-plasma ratio): 5.36 ± 0.54
- Cmax [2]: 6190 ± 440 ng/mL
- AUC(0-t) [2]: 23100 ± 2110 ng·h/mL
- AUC(0-t) (FVB, mouse, plasma, 10 mg/kg, female Oatp1a/1b−/− mice): 24600 ± 3270 ng·h/mL
- Cmax [3]: 4800 ± 1780 ng/mL
- AUC(0-t) [3]: 16300 ± 6350 ng·h/mL
- Cmax (Oatp1a/1b−/−, >99% FVB background, mouse, plasma, 10 mg/kg, female Oatp1a/1b−/− mice): 6150 ± 800 ng/mL
